Measurements published in ChEMBL document CHEMBL1129740, “Structure-activity relationships of a series of substituted benzamides: potent D2/5-HT2 antagonists and 5-HT1a agonists as neuroleptic agents” (J Med Chem, 1996).

Experiments:
[1] = target: T1, 5-hydroxytryptamine receptor 1A (Rattus norvegicus, UniProt P19327); experiment: In vitro inhibitory activity against [3H]8-OH-DPAT binding to 5-hydroxytryptamine 1A receptor
T1 sequence (P19327 whole entry): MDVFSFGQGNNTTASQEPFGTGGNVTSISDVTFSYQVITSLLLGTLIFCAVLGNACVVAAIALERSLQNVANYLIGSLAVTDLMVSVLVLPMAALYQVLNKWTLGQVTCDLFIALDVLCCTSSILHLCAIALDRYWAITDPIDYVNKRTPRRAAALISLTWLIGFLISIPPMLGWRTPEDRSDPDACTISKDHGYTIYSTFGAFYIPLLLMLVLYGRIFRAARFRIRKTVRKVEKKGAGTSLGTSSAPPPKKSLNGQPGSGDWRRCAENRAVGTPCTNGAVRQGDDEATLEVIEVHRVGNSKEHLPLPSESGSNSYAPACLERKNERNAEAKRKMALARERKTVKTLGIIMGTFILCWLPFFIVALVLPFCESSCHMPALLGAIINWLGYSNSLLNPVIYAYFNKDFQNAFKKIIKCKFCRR

[2] = target: Serotonin 2 (5-HT2) receptor (Rattus norvegicus, UniProt P30994+P08909+P14842); experiment: In vitro inhibitory activity against [3H]ketanserin binding to 5-hydroxytryptamine 2 receptor; format: protein assay
[3] = tested on: Mus musculus; experiment: In vivo effective dose required to antagonize the apomorphine induced climbing response in mice administered intraperitoneally.; format: functional; details: ip
[4] = tested on: Mus musculus; experiment: In vivo effective dose required to antagonize the apomorphine induced climbing response in mice administered perorally; format: functional; details: po
[5] = tested on: Mus musculus; experiment: In vivo effective dose to antagonize the apomorphine induced climbing response in mice administered perorally; format: functional; details: po
[6] = tested on: Mus musculus; experiment: In vivo effective dose to antagonize the apomorphine induced climbing response in mice administered intraperitoneally.; format: functional; details: ip
[7] = tested on: Mus musculus; experiment: In vivo effective dose to antagonize the apomorphine induced climbing response in mice administered intraperitoneally. (value in bracket denotes 95% confidence limit); format: functional; details: ip
[8] = tested on: Mus musculus; experiment: In vivo effective dose to antagonize the apomorphine induced climbing response in mice administered perorally. value in bracket denotes 95% confidence limit); format: functional; details: po
[9] = tested on: Mus musculus; experiment: In vivo effective dose to antagonize the apomorphine induced climbing response in stereotypy mouse administered perorally Value in parentheses is 95% confidence limits.; format: functional; details: po
[10] = tested on: Mus musculus; experiment: In vivo effective dose to antagonize the apomorphine induced climbing response in stereotype mouse administered intraperitoneally ( value in bracket indicates 95% confidence limit); format: functional; details: ip
[11] = tested on: Mus musculus; experiment: In vivo effective dose to induce catalepsy in mouse administered perorally. Value in parentheses is 95% confidence limits.; format: functional; details: po
[12] = tested on: Mus musculus; experiment: In vivo effective dose to antagonize the apomorphine induced climbing response in stereotype mouse administered intraperitoneally; format: functional; details: ip
[13] = tested on: Mus musculus; experiment: In vivo effective dose to induce catalepsy in mouse administered perorally.; format: functional; details: po
[14] = tested on: Mus musculus; experiment: In vivo effective dose to antagonize the apomorphine induced climbing response in stereotypy mouse administered perorally; format: functional; details: po

Structure (SMILES)	IC50 [1]	IC50 [2]	ED50 [3]	ED50 [4]	also measured
Cl.Nc1cccc(F)c1C(=O)NCCCCN1CCN(c2nsc3ccccc23)CC1	4.2 nM	1.6 nM	7.8 mg/kg	20.8 mg/kg	–
Cl.O=C(NCCCCN1CCN(c2nsc3ccccc23)CC1)c1ccccc1O	12 nM	3.9 nM	1 mg/kg	–	ED50 [5]: 21.5 mg/kg
Cl.O=C(NCCCCN1CCN(c2nsc3ccccc23)CC1)c1ccc(/N=N/c2ccccc2)cc1	540 nM	26 nM	> 25 mg/kg	–	–
CCc1cc(Cl)c(OC)c(C(=O)NCCCCN2CCN(c3nsc4ccccc34)CC2)c1OC.Cl	180 nM	30 nM	26 mg/kg	–	–
Cc1cccc(C(=O)NCCCCN2CCN(c3nsc4ccccc34)CC2)c1N.Cl	–	5.8 nM	5.4 mg/kg	37.6 mg/kg	–
CC(C)(C)c1ccc(C(=O)NCCCCN2CCN(c3nsc4ccccc34)CC2)cc1.Cl	520 nM	68 nM	–	> 25 mg/kg	–
Cl.Nc1ccc(Cl)cc1C(=O)NCCCCN1CCN(c2nsc3ccccc23)CC1	9.4 nM	1.6 nM	< 6 mg/kg	25 mg/kg	–
CC(=O)Nc1ccccc1C(=O)NCCCCN1CCN(c2nsc3ccccc23)CC1.Cl	5.2 nM	2 nM	4.1 mg/kg	22.3 mg/kg	–
COc1ccc(Br)c(OC)c1C(=O)NCCCCN1CCN(c2nsc3ccccc23)CC1.Cl	74 nM	12 nM	> 25 mg/kg	–	–
CC(=O)Nc1ccc(C(=O)NCCCCN2CCN(c3nsc4ccccc34)CC2)cc1.Cl	–	51 nM	> 25 mg/kg	> 25 mg/kg	–
Cl.Nc1ccccc1C(=O)NCCCCN1CCN(c2nsc3ccccc23)CC1	3.8 nM	3.3 nM	–	–	ED50 [7]: 1.5 mg/kg; ED50 [8]: 10.1 mg/kg; ED50 [9]: 91.1 mg/kg; ED50 [10]: 10.2 mg/kg; ED50 [11]: 192 mg/kg
Cl.O=C(NCCCCN1CCN(c2nsc3ccccc23)CC1)c1ccc(Cl)cc1	15 nM	5.6 nM	9.4 mg/kg	> 25 mg/kg	–
COc1ccc(N)c(C(=O)NCCCCN2CCN(c3nsc4ccccc34)CC2)c1.Cl	10 nM	1.4 nM	2.1 mg/kg	> 50 mg/kg	–
Cl.Nc1ccc([N+](=O)[O-])cc1C(=O)NCCCCN1CCN(c2nsc3ccccc23)CC1	20 nM	3.8 nM	19.6 mg/kg	–	–
Cl.Nc1ccc(C(=O)NCCCCN2CCN(c3nsc4ccccc34)CC2)cc1	23 nM	150 nM	> 25 mg/kg	–	–
COc1c(Br)ccc(O)c1C(=O)NCCCCN1CCN(c2nsc3ccccc23)CC1.Cl	–	14 nM	4.7 mg/kg	> 25 mg/kg	–
CCc1cc(Cl)c(OC)c(C(=O)NCCCCN2CCN(c3nsc4ccccc34)CC2)c1O.Cl	69 nM	6.8 nM	> 25 mg/kg	–	–
CCOC(=O)Nc1ccccc1C(=O)NCCCCN1CCN(c2nsc3ccccc23)CC1.Cl	–	1.4 nM	1.8 mg/kg	32.8 mg/kg	–
CCc1cc(Cl)c(O)c(C(=O)NCCCCN2CCN(c3nsc4ccccc34)CC2)c1OC.Cl	23 nM	6.3 nM	25.5 mg/kg	–	–
Cl.Nc1cc(F)ccc1C(=O)NCCCCN1CCN(c2nsc3ccccc23)CC1	4.2 nM	0.59 nM	2.5 mg/kg	27.1 mg/kg	–
Cl.O=C(NCCCCN1CCN(c2nsc3ccccc23)CC1)c1ccccc1	5.2 nM	2.1 nM	1.1 mg/kg	21.5 mg/kg	–
Cl.Nc1c(F)cccc1C(=O)NCCCCN1CCN(c2nsc3ccccc23)CC1	1.5 nM	0.5 nM	0.9 mg/kg	14.3 mg/kg	ED50 [12]: 8.9 mg/kg; ED50 [13]: 55.5 mg/kg; ED50 [14]: 46.7 mg/kg
CC(C)[C@H](Nc1ccccc1C(=O)NCCCCN1CCN(c2nsc3ccccc23)CC1)C(=O)O.Cl	5.4 nM	2.7 nM	–	17.9 mg/kg	ED50 [12]: 26.9 mg/kg; ED50 [13]: 44.5 mg/kg; ED50 [14]: 59.9 mg/kg
COc1cccc(C(=O)NCCCCN2CCN(c3nsc4ccccc34)CC2)c1N.Cl	4.1 nM	1.6 nM	2.2 mg/kg	20.3 mg/kg	–
Cl.O=C(NCCCCN1CCN(c2nsc3ccccc23)CC1)c1c(O)ccc(Br)c1O	120 nM	16 nM	6 mg/kg	28.8 mg/kg	–
Cc1cccc(N)c1C(=O)NCCCCN1CCN(c2nsc3ccccc23)CC1.Cl	64 nM	8.9 nM	> 25 mg/kg	–	–
Cl.Nc1cccc(Cl)c1C(=O)NCCCCN1CCN(c2nsc3ccccc23)CC1	–	3.4 nM	> 25 mg/kg	–	–
CC(C)(C)OC(=O)Nc1ccc(C(=O)NCCCCN2CCN(c3nsc4ccccc34)CC2)cc1.Cl	0.7 nM	0.23 nM	> 25 mg/kg	–	–
Cl.NNc1ccccc1C(=O)NCCCCN1CCN(c2nsc3ccccc23)CC1	3.8 nM	2.4 nM	10.8 mg/kg	40.4 mg/kg	–

Now from value to molecule, other results behind:

IC50 [1]	IC50 [2]	Structure (SMILES)	ED50 [3]	ED50 [4]	also measured
–	2.3 nM	Cl.Nc1ccc(F)cc1C(=O)NCCCCN1CCN(c2nsc3ccccc23)CC1	2.2 mg/kg	31.8 mg/kg	–
3.7 nM	1.8 nM	Cl.[N-]=[N+]=Nc1ccccc1C(=O)NCCCCN1CCN(c2nsc3ccccc23)CC1	–	–	ED50 [6]: 25 mg/kg
1.2 nM	2.3 nM	CN(CCCCN1CCN(c2nsc3ccccc23)CC1)C(=O)c1ccccc1N.Cl	> 12 mg/kg	–	–
12 nM	1.3 nM	CC(C)(C)OC(=O)Nc1cccc(C(=O)NCCCCN2CCN(c3nsc4ccccc34)CC2)c1.Cl	> 25 mg/kg	–	–
26 nM	15 nM	COc1ccc(Br)c(O)c1C(=O)NCCCCN1CCN(c2nsc3ccccc23)CC1.Cl	1.5 mg/kg	14.3 mg/kg	ED50 [12]: 15.4 mg/kg; ED50 [13]: 123 mg/kg; ED50 [14]: 87.5 mg/kg
8.6 nM	1.6 nM	CC(C)[C@@H](Nc1ccccc1C(=O)NCCCCN1CCN(c2nsc3ccccc23)CC1)C(=O)O.Cl	> 25 mg/kg	–	–
49 nM	1.7 nM	Cl.O=C(NCCCCN1CCN(c2nsc3ccccc23)CC1)c1cc(Cl)cc(Cl)c1	> 25 mg/kg	–	–
9.1 nM	1.5 nM	Cl.O=C(NCCCCN1CCN(c2nsc3ccccc23)CC1)c1ccc(C(F)(F)F)cc1	12.5 mg/kg	> 25 mg/kg	–
6.6 nM	2.6 nM	Cl.Nc1cccc(C(=O)NCCCCN2CCN(c3nsc4ccccc34)CC2)c1	–	–	–
9 nM	2.3 nM	COc1ccc(C(=O)NCCCCN2CCN(c3nsc4ccccc34)CC2)cc1.Cl	2.4 mg/kg	> 25 mg/kg	–
10 nM	12 nM	CNc1ccccc1C(=O)NCCCCN1CCN(c2nsc3ccccc23)CC1.Cl	5.8 mg/kg	15.6 mg/kg	ED50 [12]: 13.5 mg/kg; ED50 [13]: 80.6 mg/kg; ED50 [14]: 65 mg/kg
1.4 nM	3.9 nM	CN(CCCCN1CCN(c2nsc3ccccc23)CC1)C(=O)c1ccccc1.Cl	10 mg/kg	22.4 mg/kg	–
12 nM	2.3 nM	Cl.Nc1cc(C(F)(F)F)ccc1C(=O)NCCCCN1CCN(c2nsc3ccccc23)CC1	6.9 mg/kg	> 50 mg/kg	–
6.4 nM	3.7 nM	Cl.O=C(NCCCCN1CCN(c2nsc3ccccc23)CC1)c1ccccc1[N+](=O)[O-]	25 mg/kg	–	–
